Experimental data from patent US20050267029A1, “Compounds which modulate amyloidogenesis and methods for their identification and use” (priority 2004, published 2005).
Positions count from the first letter of the chain named. Like-named read-outs stand apart in the source and are kept apart here. Square brackets hold non-standard residues; d marks the D form. Ends that are not written are not given here.

Experiments:
[1] = tested on: J774A.1 cells; details: for Effect on amyloidogenesis / amyloid deposition in cell culture (in words): increasing concentrations of test agent
Protocol: AA-amyloid deposits were detected by histochemical staining with Alcian blue and direct quantitation by Th-T fluorescence.
The ability of a number of potential anti-amyloid compounds to modulate amyloid formation in this cell culture system was tested. To determine the effects of these potential anti-amyloid compounds, cell culture amyloidogenesis was induced in the presence of increasing concentrations of the test agents. Amyloid loads were quantified by Th-T fluorescence.
The murine monocytic cell line J774A.1 (American Type Culture Collection, Manassas, Va.) was cultured in RPMI (Sigma) medium which contained 25 mM HEPES, 15% fetal bovine serum (FBS) and 50 μg/ml penicillin-streptomycin, at 37° C., 5% CO2. The cell stocks were passaged every four days, and the medium replaced every other day. Cells were seeded at a minimal density in 8-well chamber slides (Lab-Tek®, Nalge Nunc International, Naperville, Ill.) in 350 μl medium/well and allowed to reach about 80-90% confluence (3 days), about 2.2×10^5 cells per well. To induce AA-amyloidogenesis, cells were treated for 24 hours with 30 μg of AEF in the culture medium, then the medium was removed and the cells rinsed with fresh medium. To these cells 350 μl of medium was added containing either 0.3 mg/ml HDL-SAA, HDL, 0.05 mg/ml SAA1.1 or SAA2.1, replenished every two days for 7 days. At the end of the treatment period, the cells were either stained with Congo red to visualize the amyloid deposits, or the cells were dissolved in 1% NaOH and assayed for amyloid fibrils by thioflavin-T (Th-T) fluorescence as described by LeVine (Methods Enzymol. 1999 309:274-284).

[2] = tested on: J774A.1 cells; assay: Cell culture amyloidogenesis, amyloid detected by Congo Red (CR) staining; type: cell-based, murine
Protocol: The murine monocytic cell line J774A.1 (American Type Culture Collection, Manassas, Va.) was cultured in RPMI (Sigma) medium which contained 25 mM HEPES, 15% fetal bovine serum (FBS) and 50 μg/ml penicillin-streptomycin, at 37° C., 5% CO2. The cell stocks were passaged every four days, and the medium replaced every other day. Cells were seeded at a minimal density in 8-well chamber slides (Lab-Tek®, Nalge Nunc International, Naperville, Ill.) in 350 μl medium/well and allowed to reach about 80-90% confluence (3 days), about 2.2×10^5 cells per well. […] At the end of the treatment period, the cells were either stained with Congo red to visualize the amyloid deposits, or the cells were dissolved in 1% NaOH and assayed for amyloid fibrils by thioflavin-T (Th-T) fluorescence as described by LeVine (Methods Enzymol. 1999 309:274-284). […]
Congo Red (CR) staining for amyloid was performed on cells that were rinsed with PBS, fixed for 10 minutes in 70% ethanol, and then stained for 45 minutes with Congo red prepared in alkaline 80% ethanol, NaCl saturated solution. […] Quantitation of amyloid was performed by Th-T fluorescence as described by LeVine (Methods Enzymol. 1999 309:274-284). Fluorescence spectra of Th-T were acquired at 25° C. with a Spectra Max Gemini 96-well plate reader. […] Control spectra of Th-T and cell extract alone were determined. […]

[3] = tested on: J774 cells; assay: HDL-SAA binding/uptake by J774 cells (western blot); type: cell-based, murine; details: 50 μM
[4] = target: T1, IAPP (Homo sapiens, UniProt P10997); details: cited from earlier work
T1 construct: human islet amyloid polypeptide, a major component of amyloid deposits found in the pancreas
T1 sequence (P10997 34-70 limits assumed): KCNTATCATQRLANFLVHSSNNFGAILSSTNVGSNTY

[5] = target: Aβ1-40 (Homo sapiens, UniProt P05067); details: 100 μM, cell-free system; cited from earlier work
Chain of Aβ1-40 (P05067 672-711): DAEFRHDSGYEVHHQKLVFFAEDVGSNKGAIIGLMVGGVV

Molecule: ADQAANEWGRSGKDPNHFRPAGLPEKY [SEQ ID NO:9]
- Effect on amyloidogenesis / amyloid deposition in cell culture (in words) [1]: equivalent inhibitory activity

Molecule: ADQEANAAGASGKDPNYYRPPGLPAKY (OTHER INFORMATION: Synthetic) [27-mer; R83A/H84A/R86A]
- Effect on amyloidogenesis / amyloid deposition in cell culture (in words) [1]: complete loss of inhibitory activity

Molecule: ADQEANRHGRSGKDPNYYRPPGLPAKY ([dA][dD][dQ][dE][dA][dN][dR][dH]G[dR][dS]G[dK][dD][dP][dN][dY][dY][dR][dP][dP]G[dL][dP][dA][dK][dY]) [D-27mer]
- Formation of CR-detectable amyloid ([2]; 20 μM, co-incubated with HDL-SAA): prevented the formation of any CR-detectable amyloid

Molecule: ADQEANRHGRSGKDPNYYRPPGLPAKY [27-mer]
- Effect on HDL-SAA binding to J774 cells [3]: did not interfere with HDL-SAA binding to cells
- IC50 [1]: 20 nM
- Fold less than the SAA1.1 concentration used to generate AA-amyloid ([1]; 70 nM versus 4.2 μM SAA1.1): about 60 fold
- Fold less peptide needed than the IAPP peptides (100 μM) for similar inhibition ([1]; 70 nM versus 100 μM): 1400 fold
- IC50 fold lower than that for PVS ([1]; 27-mer versus PVS): 25 fold
- Concentration achieving a similar level of inhibition (80 to 85%) of amyloid load ([1]; SAA1.1 concentration 4.2 μM): 70 nM

Molecule: ANRHGRSGKNPNYYRPPGLPAKY (ANRHGRSGKNPNYYRPPGLPAKY-NH2) [23-mer basic]
- Inhibition of CR-detectable amyloid ([2]; 2 μM): completely inhibit CR-detectable amyloid

Molecule: FLVHSS [residues 15-20 of human islet amyloid polypeptide]
- Effect on beta-sheet transition and fibril formation of human islet amyloid polypeptide [4]: strong enhancers of beta-sheet transition and fibril formation

Molecule: KLVFF [Aβ peptide (residues 16-20)]
- Effect on Aβ1-40 fibril assembly [5]: prevent fibril assembly

Molecule: LANFLV [residues 12-17 of human islet amyloid polypeptide]
- Effect on beta-sheet transition and fibril formation of human islet amyloid polypeptide [4]: strong enhancers of beta-sheet transition and fibril formation

Molecule: PLPAQGKPGPDHYARNDSYAKNRYERG (OTHER INFORMATION: Synthetic) [SEQ ID NO:8, reference compound]
- Effect on amyloidogenesis / amyloid deposition in cell culture (in words) [1]: complete loss of inhibitory activity

Molecule: WRAYTDMKEAGWKDGDKYFHARGNYDAAQRGPG [33-mer]
- Effect on HDL-SAA binding to J774 cells [3]: completely blocked HDL-SAA binding/uptake
- Enhancement of amyloid formation ([1]; AEF preincubation not used): greater than 50%
- Enhancement of amyloid formation ([1]; cells preincubated with AEF): up to 180%
- Effect on amyloidogenesis / amyloid deposition in cell culture (in words) [1]: increasing amyloid load in culture

Molecule: chondroitin sulfate [reference compound]
- Effect on amyloidogenesis / amyloid deposition in cell culture (in words) [1]: unable to affect amyloid deposition at any concentration tested

Molecule: heparin [reference compound]
- Effect on HDL-SAA binding to J774 cells [3]: prevented HDL-SAA binding to cells

Molecule: polyvinylsulfonate [PVS, reference compound]
- Effect on HDL-SAA binding to J774 cells [3]: prevented HDL-SAA binding to J774 cells
- 100% inhibition of amyloidogenesis (IC100) ([1]; Th-T fluorescence): 9 µM
- IC50 ([1]; read-out: 50% inhibition of amyloidogenesis (IC50), Th-T fluorescence, test agent present throughout HDL-SAA treatments): 500 nM

B1: SAA1.1: purified delipidated murine serum amyloid A isoform 1.1 (protein, UniProt P05366 20-122, looked up)
Serum amyloid A-1 protein: GFFSFVHEAFQGAGDMWRAYTDMKEANWKNSDKYFHARGNYDAAQRGPGGVWAAEKISDGREAFQEFFGRGHEDTIADQEANRHGRSGKDPNYYRPPGLPDKY
- Amyloid produced, % of HDL-SAA ([1]; purified delipidated isoform 50 μg/ml with AEF): 9%

B2: SAA2.1: purified delipidated murine serum amyloid A isoform 2.1 (protein, UniProt P05367 20-122, looked up)
Serum amyloid A-2 protein: B1 Serum amyloid A-1 protein with V6I, H7G, N27G, N30D, S31G, G60A, A63S, I76M, D101A
- Amyloid produced from SAA form (in words) ([1]; with AEF, CR stain or Th-T fluorescence): no amyloid was detected
